# Patent publication US8344010B2, “Fused imidazole derivatives as TRPV3 antagonist” (Glenmark Pharmaceuticals S.A., priority 2008, dated 2013)
# pIC50: −log10 of the molar value.
# Target: T1, Human TRPV3 (Homo sapiens, UniProt Q8NET8)
# T1 construct: expressed in transfected cells; host or cells: CHO cells (selected with G-418)
# T1 sequence (Q8NET8 1-790): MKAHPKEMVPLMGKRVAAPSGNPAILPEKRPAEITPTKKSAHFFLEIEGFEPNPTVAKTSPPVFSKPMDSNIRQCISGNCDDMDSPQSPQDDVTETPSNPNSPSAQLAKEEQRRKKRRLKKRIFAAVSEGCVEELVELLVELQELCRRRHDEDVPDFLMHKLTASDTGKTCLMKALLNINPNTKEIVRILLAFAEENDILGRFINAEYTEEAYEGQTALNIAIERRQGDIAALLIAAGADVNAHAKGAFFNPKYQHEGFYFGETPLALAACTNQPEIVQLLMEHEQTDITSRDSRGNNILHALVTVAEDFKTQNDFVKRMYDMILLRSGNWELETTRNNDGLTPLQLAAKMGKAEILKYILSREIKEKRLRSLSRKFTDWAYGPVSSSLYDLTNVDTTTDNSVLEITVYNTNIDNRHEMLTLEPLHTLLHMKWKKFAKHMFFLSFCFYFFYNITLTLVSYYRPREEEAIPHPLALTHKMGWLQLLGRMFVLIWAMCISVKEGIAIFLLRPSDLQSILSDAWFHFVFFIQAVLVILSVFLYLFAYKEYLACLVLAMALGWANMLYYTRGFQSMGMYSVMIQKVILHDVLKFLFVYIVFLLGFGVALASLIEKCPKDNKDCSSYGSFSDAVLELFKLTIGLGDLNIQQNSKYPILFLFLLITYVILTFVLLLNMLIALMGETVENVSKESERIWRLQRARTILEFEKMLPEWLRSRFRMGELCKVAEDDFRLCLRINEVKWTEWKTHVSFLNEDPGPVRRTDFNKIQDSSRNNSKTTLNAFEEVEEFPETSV
# Assay: 45Calcium uptake assay: inhibition of 2-APB induced cellular uptake of radioactive calcium
# Assay type: cell-based
# Details: human TRPV3 expressing CHO cells, 2-APB 500 μM; for inhibition at 1 µM: 1 μM test compound, read-out: Percentage Inhibition (1 μM); for inhibition at 10 µM: 10 μM test compound, read-out: Percentage Inhibition (10 μM); for pIC50: class symbol
# Excerpt: The illustrative examples of the present invention are screened for TRPV3 activity according to a modified procedure described in Tóth, A., Kedei, N., Wang, Y. and Blumberg, P. M. Life Sciences (2003), 73, 487-498. The screening of the compounds can be carried out by other methods and procedures known to a person skilled in the art. Such screening methods may be found in (a) Hu, H.-Z. et al. J. Biol. Chem. (2004), 279, 35741-35747; (b) Smith, G. D. et al. Nature (2002), 418, 186-190; (c) Peier, A. M. et al. Science (2002), 296, 2046-2049.
# Screening for TRPV3 antagonist using the ^45Calcium uptake assay The inhibition of TRPV3 receptor activation was followed as inhibition of 2-aminoethoxydiphenylborate (2-APB) induced cellular uptake of radioactive calcium. Test compounds were dissolved in dimethyl sulfoxide (DMSO) to prepare 20 mM stock solution and then diluted using plain medium with DMEM/F-12 containing 1.8 mM CaCl2 to get desired concentration. Final concentration of DMSO in the reaction was 0.5% (v/v). Human TRPV3 expressing CHO cells were grown in DMEM/F-12 medium with 10% FBS, 1% penicillin-streptomycin solution, 400 μg/ml of G-418. Cells were seeded 24 h prior to the assay in 96 well plates so as to get ˜50,000 cells per well on the day of experiment. Cells were treated with test compounds for 10 minutes followed by addition of 2-APB at a final concentration of 500 μM and 5 μCi/ml^45Ca^+2 for 4 minutes. Cells were washed and lysed using buffer containing 1% Triton X-100, 0.1% deoxycholate and 0.1% SDS. Radioactivity in the lysate was measured in Packardt Top count after addition of liquid scintillant. Concentration response curves were plotted as a % of maximal response obtained in the absence of test antagonist. IC50 value was calculated from concentration response curve by nonlinear regression analysis using GraphPad PRISM software.
# Percentage inhibition at concentrations of 1.0 μM and 10.0 μM are given in the table along with IC50 details for selected examples.
inhibition at 1 µM [%],inhibition at 10 µM [%],pIC50,SMILES
93.2,97.7,6.30 to 7.00,"COc1cccc(/C=C/c2nc3ccccc3n2-c2ccc(C#N)cn2)c1OCc1ccccc1F [Example 14, 6-(2-{(E)-2-[2-(2-Fluorobenzyloxy)-3-methoxyphenyl]vinyl}-1H-benzimidazol-1-yl)nicotinonitrile]"
90.3,95.1,< 6.30,COc1cccc(/C=C/c2nc3ccccc3n2-c2ccc(C#N)cn2)c1OCc1ccccc1C#N [Example 15]
97.7,99,7.00 to 7.30,"COc1cccc(/C=C/c2nc3ccccc3n2-c2ccc(C#N)cn2)c1OCc1ccccc1C(F)(F)F [Example 16, 6-{2-[(E)-2-(3-Methoxy-2-{[2-(trifluoromethyl)benzyl]oxy}phenyl)vinyl]-1H-benzimidazole-1-yl}nicotinonitrile]"
84.3,95.8,6.30 to 7.00,"COc1cccc(/C=C/c2nc3ccccc3n2-c2ccc(C#N)cn2)c1OCc1c(F)cccc1F [Example 17, 6-(2-{(E)-2-[2-(2,6-Difluorobenzyloxy)-3-methoxyphenyl]vinyl}-1H-benzimidazol-1-yl)nicotinonitrile]"
94.2,97.3,6.30 to 7.00,"COc1cccc(/C=C/c2nc3ccccc3n2-c2ccc(C#N)cn2)c1OCc1ccc(F)cc1F [Example 18, 6-(2-{(E)-2-[2-(2,4-Difluorobenzyloxy)-3-methoxyphenyl]vinyl}-1H-benzimidazol-1-yl)nicotinonitrile]"
82.9,95.9,6.30 to 7.00,"CCOC(=O)c1ccc(-n2c(/C=C/c3cccc(OC)c3OC3CCCC3)nc3ccccc32)nn1 [Example 19, Ethyl 6-{2-[(E)-2-(2-[Cyclopentyloxy]-3-methoxyphenyl)vinyl]-1H-benzimidazol-1-yl}pyridazine-3-carboxylate]"
0,52.7,,"COc1cccc(/C=C/c2nc3ccccc3n2-c2ccc(C#N)nn2)c1OC1CCCC1 [Example 20, 6-{2-[(E)-2-(2-[Cyclopentyloxy]-3-methoxyphenyl)vinyl]-1H-benzimidazol-1-yl}pyridazine-3-carbonitrile]"
13,81.9,,COc1cccc(/C=C/c2nc3ccccc3n2-c2ncccn2)c1OC1CCCC1 [Example 21]
70.6,89.2,6.30 to 7.00,"CCC(CC)Oc1c(/C=C/c2nc3ccccc3n2-c2ncc(Br)cn2)cccc1OC [Example 22, 1-(5-Bromopyrimidin-2-yl)-2-{(E)-2-[2-(1-ethylpropoxy)-3-methoxyphenyl]vinyl}-1H-benzimidazole]"
56,84.5,,"COc1cccc(/C=C/c2nc3ccccc3n2-c2ncc(Br)cn2)c1OC1CCCC1 [Example 23, 1-(5-Bromopyrimidin-2-yl)-2-[(E)-2-(2-cyclopentyloxy-3-methoxyphenyl)vinyl]-1H-benzimidazole]"
84.7,98,< 6.30,"COc1cccc(/C=C/c2nc3ccccc3n2-c2ncccc2C(F)(F)F)c1OC1CCCC1 [Example 24, 2-[(E)-2-(2-Cyclopentyloxy-3-methoxyphenyl)vinyl]-1-[3-(trifluoromethyl)pyridin-2-yl]-1H-benzimidazole]"
86.7,97.5,6.30 to 7.00,"COc1cccc(/C=C/c2nc3ccccc3n2-c2ccc(C(F)(F)F)cn2)c1OC(C)C [Example 25, 2-[(E)-2-(2-Isopropoxy-3-methoxyphenyl)vinyl]-1-(5-trifluoromethylpyridin-2-yl)-1H-benzimidazole]"
70.6,91.6,< 6.30,COc1cccc(/C=C/c2nc3ccccc3n2-c2ccc(C(F)(F)F)cn2)c1OCC1CC1 [Example 26]
41.8,94.7,,"COc1cccc(/C=C/c2nc3ccccc3n2-c2ccc(C(F)(F)F)cn2)c1OC1CCCC1 [Example 27, 2-[(E)-2-(2-Cyclopentyloxy-3-methoxyphenyl)vinyl]-1-[5-(trifluoromethyl)pyridin-2-yl]-1H-benzimidazole]"
77.1,92.6,6.30 to 7.00,"COc1cccc(/C=C/c2nc3ccccc3n2-c2ccc(C(F)(F)F)cn2)c1OCc1ccccc1 [Example 28, 2-[(E)-2-(2-Benzyloxy-3-methoxyphenyl)vinyl]-1-[5-(trifluoromethyl)pyridin-2-yl]-1H-benzimidazole]"
78.8,93.6,6.30 to 7.00,"COc1cccc(/C=C/c2nc3ccccc3n2-c2ncc(C(F)(F)F)cc2Cl)c1OC1CCCC1 [Example 29, 1-[3-Chloro-5-(trifluoromethyl)pyridin-2-yl]-2-[(E)-2-(2-cyclopentyloxy-3-methoxyphenyl)vinyl]-1H-benzimidazole]"
16.4,27.5,,"COC(=O)c1ccc(-n2c(/C=C/c3cccc(OC)c3OC3CCCC3)nc3ccccc32)nc1 [Example 30, Methyl 6-(2-{(E)-2-[2-(Cyclopentyloxy)-3-methoxyphenyl]vinyl}-1H-benzimidazol-1-yl)nicotinate]"
47.3,86.6,,"COc1cccc(/C=C/c2nc3ccccc3n2-c2ccc(C)cc2)c1OCC1CC1 [Example 31, 2-[(E)-2-(2-Cyclopropylmethoxy-3-methoxyphenyl)vinyl]-1-(4-methylphenyl)-1H-benzimidazole]"
9.07,0,,"COc1ccccc1-n1c(/C=C/c2cccc(OC)c2OC2CCCC2)nc2ccccc21 [Example 32, 2-[(E)-2-(2-Cyclopentyloxy-3-methoxyphenyl)vinyl]-1-(2-methoxyphenyl)-1H-benzimidazole]"
78.2,95.3,6.30 to 7.00,"COc1cccc(/C=C/c2nc3ccccc3n2-c2ccc(C#N)cc2)c1OCC1CC1 [Example 33, 4-{2-[(E)-2-(2-Cyclopropylmethoxy-3-methoxyphenyl)vinyl]-1H-benzimidazol-1-yl}benzonitrile]"
69.9,86.8,< 6.30,"COc1cccc(/C=C/c2nc3ccccc3n2-c2ccc(C#N)cc2)c1OCc1ccccc1 [Example 34, 4-{2-[(E)-2-(2-Benzyloxy-3-methoxyphenyl)vinyl]-1H-benzimidazol-1-yl}benzonitrile]"
54.3,77.8,,"COc1cccc(/C=C/c2nc3ccccc3n2-c2ccc(C(F)(F)F)cc2)c1OC1CCCC1 [Example 35, 2-[(E)-2-(2-Cyclopentyloxy-3-methoxyphenyl)vinyl]-1-[4-(trifluoromethyl)phenyl]-1H-benzimidazole]"
72.2,84.6,6.30 to 7.00,"COc1cccc(/C=C/c2nc3ccccc3n2-c2ccc(C(F)(F)F)cc2)c1OCC1CC1 [Example 37, 2-[(E)-2-(2-Cyclopropylmethoxy-3-methoxyphenyl)vinyl]-1-[4-(trifluoromethyl)phenyl]-1H-benzimidazole]"

SMILES,inhibition at 1 µM [%],inhibition at 10 µM [%],pIC50
"CCCCOc1c(/C=C/c2nc3ccccc3n2-c2ccc(C#N)cc2)cccc1OC [Example 36, 4-{2-[(E)-2-(2-Butoxy-3-methoxyphenyl)vinyl]-1H-benzimidazol-1-yl}benzonitrile]",82.8,96,6.30 to 7.00
